Here are results for 23 compounds from US20160175284A1, “ESTROGEN RECEPTOR MODULATORS AND USES THEREOF” (Genentech, Inc., priority 2014, published 2016).

The test deals with T1, estrogen receptor alpha (ESR1) in MCF7 breast cancer cells (Homo sapiens, UniProt P03372).
T1 construct: endogenous in cells; host or cells: MCF7 breast cancer cells
T1 sequence (P03372 1-595): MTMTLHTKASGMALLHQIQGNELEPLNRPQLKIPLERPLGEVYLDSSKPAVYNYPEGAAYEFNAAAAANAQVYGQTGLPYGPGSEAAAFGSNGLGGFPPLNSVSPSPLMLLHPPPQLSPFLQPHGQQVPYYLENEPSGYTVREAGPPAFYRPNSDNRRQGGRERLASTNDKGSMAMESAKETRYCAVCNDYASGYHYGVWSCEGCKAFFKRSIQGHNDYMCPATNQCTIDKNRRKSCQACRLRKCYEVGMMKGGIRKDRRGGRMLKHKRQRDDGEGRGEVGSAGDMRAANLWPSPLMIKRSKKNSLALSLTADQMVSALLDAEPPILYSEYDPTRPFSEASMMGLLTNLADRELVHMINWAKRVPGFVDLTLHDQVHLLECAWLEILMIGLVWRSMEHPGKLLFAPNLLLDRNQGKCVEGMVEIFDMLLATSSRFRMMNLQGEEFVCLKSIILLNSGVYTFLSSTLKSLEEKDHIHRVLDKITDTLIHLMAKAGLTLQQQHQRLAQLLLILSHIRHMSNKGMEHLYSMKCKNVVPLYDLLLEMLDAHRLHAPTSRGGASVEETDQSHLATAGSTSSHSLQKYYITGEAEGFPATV
The experiment in a line: Breast Cancer Cell ERa High Content Fluorescence Imaging Assay (F10). To be noted: 4 hours, plateau of the maximal effect, DMSO and 5 nM Fulvestrant define 0% and 100% changes in ESR1. The test is classed as cell-based. The procedure:
Breast Cancer Cell ERa High Content Fluorescence Imaging Assay (F10)
Cell plates were incubated at 37° C., for 4 hours. Fixation and permeabilization were carried out using a Biotek EL406 plate washer and dispenser as follows. […] Samples were incubated 30 minutes. Well contents was aspirated and 50 ul/well of Phosphate Buffered Saline (PBS) containing 0.5% w/v bovine serum albumen, 0.5% v/v Triton X-100 (Antibody Dilution Buffer) was added to each well. Samples were incubated for 30 minutes. Well contents were aspirated and washed 3 times with 100 ul/well of PBS. Immunofluorescence staining of estrogen receptor alpha (ESR1) was carried out using a Biotek EL406 plate washer and dispenser as follows. […] Samples were incubated for 2 hours at room temperature. Samples were washed 4 times with 100 ul/well of PBS. […] Samples were incubated for 2 hours at room temperature. Samples were washed 3 times with 100 ul/well of PBS using a Biotek EL406. Quantitative fluorescence imaging of ESR1 was carried out using a Cellomics Arrayscan V (Thermo). […] Channel 1 (DNA stain) was used to define the nuclear region (Circ). […] Data analysis was carried out using Genedata Screener Software, with DMSO and 5 nM Fulvestrant treated samples being used to define the 0% and 100% changes in ESR1. The “Robust Fit” method was used to define the inflexion point of curve (EC50) and the plateau of the maximal effect (Sinf).
`CC1=C(c2ccc(C#N)c(Cl)c2)C(c2ccc(OCCN3CC(CF)C3)cc2)Oc2ccc(O)cc21` (centres unmarked) [Example 18, 2-Chloro-4-(2-(4-(2-(3-(fluoromethyl)azetidin-1-yl)ethoxy)phenyl)-6-hydroxy-4-methyl-2H-chromen-3-yl)benzonitrile]: the “ER-alpha MCF7 HCS Sinf (%)” value is −99%.
To `CC1=C(c2ccc(C(N)=O)cc2)C(c2ccc(OCCN3CC(CF)C3)cc2)Oc2ccc(O)cc21` (centres unmarked) [Example 15, 4-(2-(4-(2-(3-(Fluoromethyl)azetidin-1-yl)ethoxy)phenyl)-6-hydroxy-4-methyl-2H-chromen-3-yl)benzamide] belongs −99%; to `CC1=C(c2cc(F)ccc2F)[C@H](c2ccc(OCCN3CC(CF)C3)cc2)Oc2ccc(O)cc21` [Example 43, (2S)-3-(2,5-difluorophenyl)-2-[4-[2-[3-(fluoromethyl)azetidin-1-yl]ethoxy]phenyl]-4-methyl-2H-chromen-6-ol], −94%; to `CC1=C(c2ccc(S(C)(=O)=O)cc2)C(c2ccc(OCCN3CC(CF)C3)cc2)Oc2ccc(O)cc21` (centres unmarked) [Example 8, 2-(4-(2-(3-(fluoromethyl)azetidin-1-yl)ethoxy)phenyl)-4-methyl-3-(4-(methylsulfonyl)phenyl)-2H-chromen-6-ol], −90%.
Regarding `CC1=C(c2ccc(F)cc2)C(c2ccc(OCCN3CC(CF)C3)cc2)Oc2cc(C#N)c(O)cc21` (centres unmarked) [Example 30, 2-{4-[2-(3-Fluoromethyl-azetidin-1-yl)-ethoxy]-phenyl}-3-(4-fluorophenyl)-6-hydroxy-4-methyl-2H-chromene-7-carbonitrile], the “ER-alpha MCF7 HCS Sinf (%)” value is listed as −92%.
To `CC1=C(c2ccc(Cl)c(F)c2)C(c2ccc(OCCN3CC[C@@H](CF)C3)cc2)Oc2ccc(O)cc21` (some centres unmarked) [Example 2] belongs −95%; to `CC1=C(c2ccc(F)cc2Cl)[C@H](c2ccc(OCCN3CC(CF)C3)cc2)Oc2ccc(O)cc21` [Example 41, (2S)-3-(2-chloro-4-fluoro-phenyl)-2-[4-[2-[3-(fluoromethyl)azetidin-1-yl]ethoxy]phenyl]-4-methyl-2H-chromen-6-ol], −100%; to `CC1=C(c2cccc(NS(C)(=O)=O)c2)C(c2ccc(OCCN3CC(CF)C3)cc2)Oc2ccc(O)cc21` (centres unmarked) [Example 12, N-(3-(2-(4-(2-(3-(Fluoromethyl)azetidin-1-yl)ethoxy)phenyl)-6-hydroxy-4-methyl-2H-chromen-3-yl)phenyl)methanesulfonamide], −93%.
In the case of `CC1=C(c2ccc(F)cc2Cl)C(c2ccc(OCCN3CC(CF)C3)cc2)Oc2ccc(O)cc21` (centres unmarked) [Example 32, 3-(2-chloro-4-fluoro-phenyl)-2-[4-[2-[3-(fluoromethyl)azetidin-1-yl]ethoxy]phenyl]-4-methyl-2H-chromen-6-ol], the “ER-alpha MCF7 HCS Sinf (%)” value is on record as −99%.
To `CC1=C(c2cccc(S(C)(=O)=O)c2)C(c2ccc(OCCN3CC(CF)C3)cc2)Oc2ccc(O)cc21` (centres unmarked) [Example 9, 2-(4-(2-(3-(Fluoromethyl)azetidin-1-yl)ethoxy)phenyl)-4-methyl-3-(3-(methylsulfonyl)phenyl)-2H-chromen-6-ol] belongs −99%; to `CC1=C(c2ccc(Cl)c(F)c2)C(c2ccc(OC[C@H](C)N3CC[C@@H](CF)C3)cc2)Oc2ccc(O)cc21` (stereo partly drawn) [Example 1, 3-(4-Chloro-3-fluorophenyl)-2-(4-((S)-2-((R)-3-(fluoromethyl)pyrrolidin-1-yl)propoxy)phenyl)-4-methyl-2H-chromen-6-ol], −91%; to `C#Cc1cc(O)cc(C2=C(C)c3cc(O)ccc3OC2c2ccc(OC[C@H](C)N3CC[C@@H](CF)C3)cc2)c1` (stereo partly drawn) [Example 3, 3-(3-Ethynyl-5-hydroxyphenyl)-2-(4-((S)-2-((R)-3-(fluoromethyl)pyrrolidin-1-yl)propoxy)phenyl)-4-methyl-2H-chromen-6-ol], −94%.
To `CC1=C(c2cccc(F)c2Cl)C(c2ccc(OCCN3CC(CF)C3)cc2)Oc2ccc(O)cc21` (centres unmarked) [Example 5] belongs −98%.
The figure for `COc1cc(C2=C(C)c3cc(O)ccc3OC2c2ccc(OCCN3CC(CF)C3)cc2)ccc1O` (centres unmarked) [Example 46, 2-(4-(2-(3-(fluoromethyl)azetidin-1-yl)ethoxy)phenyl)-3-(4-hydroxy-3-methoxyphenyl)-4-methyl-2H-chromen-6-ol] is −98%.
On to `CC1=C(c2cc(F)ccc2C)C(c2ccc(OCCN3CC(CF)C3)cc2)Oc2ccc(O)cc21` (centres unmarked) [Example 7, 3-(5-Fluoro-2-methylphenyl)-2-(4-(2-(3-(fluoromethyl)azetidin-1-yl)ethoxy)phenyl)-4-methyl-2H-chromen-6-ol], for which the “ER-alpha MCF7 HCS Sinf (%)” value is recorded as −99%.
As to `CC1=C(c2ccc(F)c(C#N)c2)[C@@H](c2ccc(OCCN3CC(CF)C3)cc2)Oc2ccc(O)cc21` [Example 34, (R)-2-fluoro-5-(2-(4-(2-(3-(fluoromethyl)azetidin-1-yl)ethoxy)phenyl)-6-hydroxy-4-methyl-2H-chromen-3-yl)benzonitrile], the “ER-alpha MCF7 HCS Sinf (%)” value is given as −88%.
In the case of `CC(=O)Nc1cccc(C2=C(C)c3cc(O)ccc3OC2c2ccc(OCCN3CC(CF)C3)cc2)c1` (centres unmarked) [Example 10, N-(3-(2-(4-(2-(3-(Fluoromethyl)azetidin-1-yl)ethoxy)phenyl)-6-hydroxy-4-methyl-2H-chromen-3-yl)phenyl)acetamide], the “ER-alpha MCF7 HCS Sinf (%)” value was −94%.
To `CC1=C(c2ccc(F)cc2)C(c2ccc(OCCN3CC(CF)C3)cc2)Oc2cc(C)c(O)cc21` (centres unmarked) [Example 29, 2-{4-[2-(3-Fluoromethyl-azetidin-1-yl)-ethoxy]-phenyl}-3-(4-fluoro-phenyl)-4,7-dimethyl-2H-chromen-6-ol] belongs −90%; to `CC1=C(c2cc(F)cc(F)c2)[C@H](c2ccc(OCCN3CC(CF)C3)cc2)Oc2ccc(O)cc21` [Example 20, (R)- and (S)-3-(3,5-Difluorophenyl)-2-(4-(2-(3-(fluoromethyl)azetidin-1-yl)ethoxy)phenyl)-4-methyl-2H-chromen-6-ol], −103%; to `CC1=C(c2cccc(C(N)=O)c2)C(c2ccc(OCCN3CC(CF)C3)cc2)Oc2ccc(O)cc21` (centres unmarked) [Example 14, 3-(2-(4-(2-(3-(Fluoromethyl)azetidin-1-yl)ethoxy)phenyl)-6-hydroxy-4-methyl-2H-chromen-3-yl)benzamide], −97%.
As for `CC1=C(c2cc(F)cc(F)c2)[C@@H](c2ccc(OCCN3CC(CF)C3)cc2)Oc2ccc(O)cc21` [Example 19, (R)- and (S)-3-(3,5-Difluorophenyl)-2-(4-(2-(3-(fluoromethyl)azetidin-1-yl)ethoxy)phenyl)-4-methyl-2H-chromen-6-ol], the “ER-alpha MCF7 HCS Sinf (%)” value was −50%.
To `CC1=C(c2ccc(F)c(C#N)c2)[C@H](c2ccc(OCCN3CC(CF)C3)cc2)Oc2ccc(O)cc21` [Example 35, (S)-2-fluoro-5-(2-(4-(2-(3-(fluoromethyl)azetidin-1-yl)ethoxy)phenyl)-6-hydroxy-4-methyl-2H-chromen-3-yl)benzonitrile] belongs −97%; to `CC1=C(c2ccc(F)c(C#N)c2)C(c2ccc(OCCN3CC(CF)C3)cc2)Oc2ccc(O)cc21` (centres unmarked) [Example 33, 2-fluoro-5-[2-[4-[2-[3-(fluoromethyl)azetidin-1-yl]ethoxy]phenyl]-6-hydroxy-4-methyl-2H-chromen-3-yl]benzonitrile], −96%.
